The values below come from ChEMBL document CHEMBL5365436, “Novel Amphibian Bowman-Birk-Like Inhibitor with Antioxidant and Anticoagulant Effects Ameliorates Pancreatitis Symptoms in Mice” (J Med Chem, 2023).

Activity calls are given as the source filed them. The calls are words filed in the database; no cut-off is given here. Positions of bridges follow the written chain, without caps; N, C: chain ends. Residues, ends and D or L forms follow the SMILES beside them.

For experiment [1], the system named is Mus musculus. Description: Anti-inflammatory activity in L-arginine-induced acute pancreatitis in BALB/c mouse model assessed as reduction in serum amylase at 50 mg/kg preincubated with compound followed by L-Arg induction for 1 hr and measured after 24 hrs by automatic analyzer. It is filed as functional, organism-based. As to conditions: time 25.0 hrs.
Experiment [2] has as its system Mus musculus. Description: Anti-inflammatory activity in L-arginine-induced acute pancreatitis in BALB/c mouse model assessed as reduction in IL-6 level at 50 mg/kg preincubated with compound followed by L-Arg induction for 1 hr and measured after 24 hrs by ELISA method. Type of experiment: functional, organism-based. Conditions: time 25.0 hrs. In general terms: An ELISA detects its analyte on a solid surface through an enzyme-linked reagent.

For experiment [3], the system named is Mus musculus. Put plainly: Anti-inflammatory activity in L-arginine-induced acute pancreatitis in BALB/c mouse model assessed as inhibition of trypsin activity at 50 mg/kg preincubated with compound followed by L-Arg induction for 1 hr and measured after 24 hrs. Type of experiment: functional, organism-based. As to conditions: time 25.0 hrs.
For experiment [4], the system named is Mus musculus. Description: Antithrombotic activity FeCl3-induced thrombosis in BALB/c mouse model assessed as carotid artery blood flow time at 5 mg/kg preincubated with compound followed by FeCl3 treatment for 1 hr and measured upto 12 mins by laser perfusion imaging method. It is filed as functional. As to conditions: time 72 min, 1.2 h.
Experiment [5] is filed under the species Mus musculus. Description: Anti-inflammatory activity in L-arginine-induced acute pancreatitis in BALB/c mouse model assessed as reduction in serum amylase preincubated with compound followed by L-Arg induction for 1 hr and measured after 24 hrs by automatic analyzer. Type of experiment: functional, organism-based. As to conditions: dose 1.25-5 mg/kg, time 25.0 hrs.

Experiment [6] is filed under the species Mus musculus. Description: Anti-inflammatory activity in L-arginine-induced acute pancreatitis in BALB/c mouse model assessed as reduction in IL-6 level preincubated with compound followed by L-Arg induction for 1 hr and measured after 24 hrs by ELISA method. Type of experiment: functional, organism-based. Conditions: dose 1.25-5 mg/kg, time 25.0 hrs.
In experiment [7] the test system is Mus musculus. Put plainly: Anti-inflammatory activity in L-arginine-induced acute pancreatitis in BALB/c mouse model assessed as improvement in neutrophil level in spleen at 1.25 to 5 mg/kg preincubated with compound followed by L-Arg induction for 1 hr and measured after 24 hrs by flow cytometry analysis. Type of experiment: functional, organism-based. Conditions: dose 1.25-5 mg/kg, time 25.0 hrs. For orientation: Flow cytometry measures light scatter and fluorescence of single cells or particles in a stream.

For experiment [8], the species on record is Mus musculus. Put plainly: Anti-inflammatory activity in L-arginine-induced acute pancreatitis in BALB/c mouse model assessed as inhibition of increase in myeloperoxidase activity at preincubated with compound followed by L-Arg induction for 1 hr and measured after 24 hrs. Type of experiment: functional, organism-based. Conditions: dose 1.25-5 mg/kg, time 25.0 hrs.

In experiment [9] the test system is Mus musculus. Description: Anti-inflammatory activity in L-arginine-induced acute pancreatitis in BALB/c mouse model assessed as inhibition of trypsin activity at 1.25 to 5 mg/kg preincubated with compound followed by L-Arg induction for 1 hr and measured after 24 hrs. It is filed as functional, organism-based. Conditions: dose 1.25-5 mg/kg, time 25.0 hrs.
The test system of experiment [10] is Mus musculus. Put plainly: Anti-inflammatory activity in L-arginine-induced acute pancreatitis in BALB/c mouse model assessed as decrease in neutrophil to lymphocyte ratio at 5 mg/kg preincubated with compound followed by L-Arg induction for 1 hr and measured after 24 hrs. As to conditions: time 25.0 hrs. It is filed as functional, organism-based.
The test system of experiment [11] is Mus musculus. Put plainly: Anti-inflammatory activity in L-arginine-induced acute pancreatitis in BALB/c mouse model assessed as decrease in platelet to lymphocyte ratio at 5 mg/kg preincubated with compound followed by L-Arg induction for 1 hr and measured after 24 hrs. Type of experiment: functional, organism-based. As to conditions: time 25.0 hrs.
The subject of experiment [12] is Mus musculus. Put plainly: Anti-inflammatory activity in L-arginine-induced acute pancreatitis in BALB/c mouse model assessed as reduction in neutrophil infiltration in pancreas at 1.25 to 5 mg/kg preincubated with compound followed by L-Arg induction for 1 hr and measured after 24 hrs by H and E staining based analysis. Type of experiment: functional, organism-based. As to conditions: dose 1.25-5 mg/kg, time 25.0 hrs.

Experiment [13] deals with Mus musculus. Description: Anti-inflammatory activity in L-arginine-induced acute pancreatitis in BALB/c mouse model assessed as reduction in interstitial edema in pancreas at 1.25 to 5 mg/kg preincubated with compound followed by L-Arg induction for 1 hr and measured after 24 hrs by H and E staining based analysis. It is filed as functional, organism-based. Conditions: dose 1.25-5 mg/kg, time 25.0 hrs.

Experiment [14] has as its system Mus musculus. Description: Anti-inflammatory activity in L-arginine-induced acute pancreatitis in BALB/c mouse model assessed as reduction in hemorrhage in pancreas at 1.25 to 5 mg/kg preincubated with compound followed by L-Arg induction for 1 hr and measured after 24 hrs by H and E staining based analysis. Conditions: dose 1.25-5 mg/kg, time 25.0 hrs. Type of experiment: functional, organism-based.

For experiment [15], the system named is Mus musculus. Description: Anti-inflammatory activity in L-arginine-induced acute pancreatitis in BALB/c mouse model assessed as reduction in necrosis in pancreas at 1.25 to 5 mg/kg preincubated with compound followed by L-Arg induction for 1 hr and measured after 24 hrs by H and E staining based analysis. As to conditions: dose 1.25-5 mg/kg, time 25.0 hrs. Type of experiment: functional, organism-based.

Experiment [16] has as its system Mus musculus. Put plainly: Anti-inflammatory activity in L-arginine-induced acute pancreatitis in BALB/c mouse model assessed as reduction in acinar cell necrosis in pancreas at 1.25 to 5 mg/kg preincubated with compound followed by L-Arg induction for 1 hr and measured after 24 hrs by H and E staining based analysis. Conditions: dose 1.25-5 mg/kg, time 25.0 hrs. Type of experiment: functional, organism-based.

The target in experiment [17] is T1, Trypsin (Homo sapiens, UniProt P07477+P07478+P35030). Put plainly: Binding affinity to trypsin (unknown origin) assessed as inhibition constant by Lineweaver-Burk plot analysis. It is filed as protein assay.
For experiment [18], the target named is T1, Trypsin. Description: Binding affinity to trypsin (unknown origin) assessed as dissociation constant by surface plasmon resonance imaging method. It is filed as protein assay. Background: SPR reads the build-up and loss of mass on a sensor chip optically.
Experiment [19] can be described thus: Antioxidant activity assessed as DPPH radical scavenging activity at 40 uM measured at 10 min by microplate reader analysis relative to control. It is filed as functional.
A short description of experiment [20]: Antioxidant activity assessed as ABTS radical scavenging activity at 40 uM measured at 10 min by microplate reader analysis relative to control. Type of experiment: functional.
Experiment [21] in a line: Antioxidant activity assessed as ferric reducing capacity at 40 uM measured at 10 min by FRAP assay (reference value: 20.87 %). Details: scale not given: the % may be the effect or the level left. It is filed as functional.
Experiment [22] relates to Mus musculus. Description: Antioxidant activity in L-arginine-induced acute pancreatitis in BALB/c mouse model assessed as reversal of SOD activity at 1.25 to 5 mg/kg by DCFH-DA staining method. It is filed as functional, organism-based. As to conditions: dose 1.25-5 mg/kg.
Experiment [23] relates to Mus musculus. Put plainly: Antioxidant activity in L-arginine-induced acute pancreatitis in BALB/c mouse model assessed as reversal of GSH level at 1.25 to 5 mg/kg by DCFH-DA staining method. It is filed as functional, organism-based. As to conditions: dose 1.25-5 mg/kg.
Experiment [24] relates to Mus musculus. Put plainly: Antioxidant activity in L-arginine-induced acute pancreatitis in BALB/c mouse model assessed as decrease in MDA level at 1.25 to 5 mg/kg by DCFH-DA staining method. Type of experiment: functional, organism-based. As to conditions: dose 1.25-5 mg/kg.
Experiment [25] relates to Mus musculus. Description: Antioxidant activity in L-arginine-induced acute pancreatitis in BALB/c mouse model assessed as decrease in ROS accumulation at 1.25 to 5 mg/kg by DCFH-DA staining method. Type of experiment: functional, organism-based. As to conditions: dose 1.25-5 mg/kg.
The test system of experiment [26] is Mus musculus. Put plainly: Antithrombotic activity in L-arginine-induced acute pancreatitis in BALB/c mouse model assessed as reduction in thrombosis by measuring fluorescence intensity at 5 mg/kg preincubated with compound followed by L-Arg induction for 1 hr and measured after 24 hrs by imaging based analysis (reference value: 24497.7). Type of experiment: functional. Conditions: time 25 hrs.

In experiment [27] the target is T1, Trypsin. Put plainly: Inhibition of trypsin (unknown origin) assessed as inhibition of casein hydrolysis using S2238 as chromogenic substrate preincubated for 5 mins followed by substrate addition and measured after 11 mins by absorbance based analysis. It is filed as protein assay. As to conditions: dose 0.3125-10 µM, time 16.0 min.
The species entered for experiment [28] is Mus musculus. Description: Antithrombotic activity in L-arginine-induced acute pancreatitis in BALB/c mouse model assessed as prolongation of plasma recalcification time preincubated with compound followed by L-Arg induction for 1 hr and measured after 24 hrs by fluorescence based analysis. It is filed as functional, organism-based. As to conditions: dose 0.1-50 µM, time 25.0 hrs.

The species named for experiment [29] is Mus musculus. Put plainly: Antithrombotic activity in L-arginine-induced acute pancreatitis in BALB/c mouse model assessed as inhibition of thrombin induced platelet aggregation preincubated with compound followed by L-Arg induction for 1 hr and measured after 24 hrs by fluorescence based analysis. Type of experiment: functional, organism-based. As to conditions: dose 12.5-50 µM, time 25.0 hrs.

Consider `CC(=O)N[C@@H](CS)C(=O)O`, for which the result in the experiment on Mus musculus [1], with Mus musculus [2] and in the experiment with Mus musculus [3] was Active.

Take `CC(C)C[C@H](NC(=O)[C@@H]1CSSC[C@H](NC(=O)CNC(=O)[C@H](CO)NC(=O)[C@H](CC(C)C)NC(=O)[C@@H](N)CO)C(=O)N[C@@H](Cc2c[nH]c3ccccc23)C(=O)N[C@@H]([C@@H](C)O)C(=O)N[C@@H](CCCCN)C(=O)N[C@@H](CO)C(=O)N[C@@H](Cc2ccccc2)C(=O)N2CCC[C@H]2C(=O)N[C@@H](CCCNC(=N)N)C(=O)N[C@@H](CCCCN)C(=O)N2CCC[C@H]2C(=O)N1)C(=O)N[C@@H](CCCNC(=N)N)C(=O)O` (H-SLSGCWTKSFPRKPCLR-OH; disulfide 5-15): the Time in the experiment with Mus musculus [4] is 12.46 min. The Activity result in the experiment listed under Mus musculus [5] was “Dose-Dependent Effect”; in the experiment filed under Mus musculus [6], “Dose-Dependent Effect”; in the experiment listed under Mus musculus [8] it was “Dose-Dependent Effect”; in experiment [19], 33.1%; in experiment [20], 58.8%; in experiment [21], 66.5%. Further, the Activity result in the experiment listed under Mus musculus [28] and in the experiment listed under Mus musculus [29] was “Dose-Dependent Effect” each time. Further, the outcome with Mus musculus [7], in the experiment with Mus musculus [9], with Mus musculus [10], with Mus musculus [11], in the experiment with Mus musculus [12] and with Mus musculus [13] was Active. In addition, the result in the experiment on Mus musculus [14], in the experiment on Mus musculus [15], in the experiment with Mus musculus [16], in the experiment on Mus musculus [22], with Mus musculus [23] and in the experiment on Mus musculus [24] was Active. Also, in the experiment on Mus musculus [25], the result was Active. In addition, the inhibition constant (Ki) on Trypsin [17] amounted to 2.66 µM. Also, at Trypsin [18], the Kd is 1.93 µM. Also, the Flu intensity in the experiment with Mus musculus [26] was 14936.4. Also, on Trypsin [27], the inhibition result was “Dose-Dependent Effect”.

As usually defined, the Ki is the dissociation constant of the complex between target and ligand, obtained from inhibition or displacement. Broadly, the Kd is the free concentration of one partner at which half of the binding sites on the other are occupied at equilibrium, for simple one-to-one binding.
